# Patent publication US20220118124A1, “R[…]-LABELED, PHOTO-CRO[…], AND PREPARATION METHOD THEREFOR” (SNVIA CO., LTD., priority 2019, published 2022)
# Test: In vivo local retention experiment of ^131I-HAMA microgel (SPECT gamma imaging after injection into femoral muscle)
# Settings: rat
# Method: An experiment was performed to confirm the distribution of ^131I and how long the ^131I-HAMA microgel was maintained at the site injected into the body. After injecting 0.2 mL of a solution of Na^131I and ^131I-HAMA microgel (1 mCi/mL) dispersed in PBS into the femoral muscle of the rat, gamma images were obtained over time with the SPECT imaging system (Infinia Hawkeye 4, GE Healthcare, USA). Within 30 minutes immediately after injection, the radioactivity at the injection site was measured with a counter per second in a dynamic mode. After 30 minutes, an image of the whole rat injected with ^131I over time was obtained in static mode, and gamma counters of major tissues such as the injection site, thyroid gland and stomach were measured.
smiles,measurement,setting,value
"[131I-].[Na+] [^131I solution, Na^131I]",radiation intensity over time in vivo,after injection into femoral muscle,decreased rapidly
same,time to flow to the whole body (SPECT image),"intramuscular injection, 200 μCi",30 min
same,spreading rate in the body from the injection site (dynamic imaging),within 30 minutes after injection,faster than that of the ^131I-HAMA microgel
same,migration of ^131I to other tissues (gamma counts),"injection site, thyroid gland, stomach, bladder","measured in the thyroid gland, stomach, and bladder in addition to the injection site"
